# Tested on: Aspergillus fumigatus
# Test: Antifungal activity against Aspergillus fumigatus 231 after 24 hrs by broth microdilution assay
# Assay type: functional
# Details: not given
row,Compound,logMIC
1,COc1ccc(O)c(C(=S)NCc2ccccc2)c1,2.4

# Same assay, conditions: Aspergillus fumigatus, 231, 24 h
row,Compound,MIC
1,Oc1ccc(Br)cc1C(=S)NCc1ccc(Cl)c(Cl)c1,7.81 µM
2,Cc1ccc(C(=S)NCc2ccc(Cl)cc2)c(O)c1,> 500 µM
3,Oc1ccc(Br)cc1C(=S)NCc1ccc(Br)cc1,15.6 µM
4,Oc1ccccc1C(=S)NCc1ccc(Cl)c(Cl)c1,15.6 µM

# Tested on: Lichtheimia corymbifera
# Test: Antifungal activity against Absidia corymbifera 272 after 24 hrs by broth microdilution assay
# Assay type: functional
# Details: not given
row,Compound,logMIC
1,COc1ccc(O)c(C(=S)NCc2ccccc2)c1,1.49

# Same assay, conditions: Lichtheimia corymbifera, 272, 24 h
row,Compound,MIC
1,Oc1ccc(Br)cc1C(=S)NCc1ccc(Cl)c(Cl)c1,3.9 µM
2,Cc1ccc(C(=S)NCc2ccc(Cl)cc2)c(O)c1,> 500 µM
3,Oc1ccc(Br)cc1C(=S)NCc1ccc(Br)cc1,3.9 µM
4,Oc1ccccc1C(=S)NCc1ccc(Cl)c(Cl)c1,7.81 µM

# Tested on: Trichosporon asahii
# Test: Antifungal activity against Trichosporon asahii 1188 after 48 hrs by broth microdilution assay
# Assay type: functional
# Details: not given
row,Compound,logMIC
1,COc1ccc(O)c(C(=S)NCc2ccccc2)c1,2.4

# Same assay, conditions: Trichosporon asahii, 1188, 48 h
row,Compound,MIC
1,Oc1ccc(Br)cc1C(=S)NCc1ccc(Cl)c(Cl)c1,7.81 µM
2,Cc1ccc(C(=S)NCc2ccc(Cl)cc2)c(O)c1,> 500 µM
3,Oc1ccc(Br)cc1C(=S)NCc1ccc(Br)cc1,7.81 µM
4,Oc1ccccc1C(=S)NCc1ccc(Cl)c(Cl)c1,15.6 µM

# Tested on: Candida tropicalis
# Test: Antifungal activity against Candida tropicalis 159 after 24 hrs by broth microdilution assay
# Assay type: functional
# Details: not given
row,Compound,logMIC
1,COc1ccc(O)c(C(=S)NCc2ccccc2)c1,2.4

# Same assay, conditions: Candida tropicalis, 159, 24 h
row,Compound,MIC
1,Oc1ccc(Br)cc1C(=S)NCc1ccc(Cl)c(Cl)c1,31.2 µM
2,Cc1ccc(C(=S)NCc2ccc(Cl)cc2)c(O)c1,> 500 µM
3,Oc1ccc(Br)cc1C(=S)NCc1ccc(Br)cc1,31.2 µM
4,Oc1ccccc1C(=S)NCc1ccc(Cl)c(Cl)c1,31.2 µM

# Tested on: Pichia kudriavzevii
# Test: Antifungal activity against Candida krusei E28 after 48 hrs by broth microdilution assay
# Assay type: functional
# Details: not given
row,Compound,logMIC
1,COc1ccc(O)c(C(=S)NCc2ccccc2)c1,2.4

# Same assay, conditions: Pichia kudriavzevii, E28, 48 h
row,Compound,MIC
1,Oc1ccc(Br)cc1C(=S)NCc1ccc(Cl)c(Cl)c1,15.6 µM
2,Cc1ccc(C(=S)NCc2ccc(Cl)cc2)c(O)c1,> 500 µM
3,Oc1ccc(Br)cc1C(=S)NCc1ccc(Br)cc1,15.6 µM
4,Oc1ccccc1C(=S)NCc1ccc(Cl)c(Cl)c1,31.2 µM

# Tested on: Nakaseomyces glabratus
# Test: Antifungal activity against Candida glabrata 20/I after 24 hrs by broth microdilution assay
# Assay type: functional
# Details: not given
row,Compound,logMIC
1,COc1ccc(O)c(C(=S)NCc2ccccc2)c1,2.4

# Same assay, conditions: Nakaseomyces glabratus, 20/I, 24 h
row,Compound,MIC
1,Oc1ccc(Br)cc1C(=S)NCc1ccc(Cl)c(Cl)c1,31.2 µM
2,Cc1ccc(C(=S)NCc2ccc(Cl)cc2)c(O)c1,> 500 µM
3,Oc1ccc(Br)cc1C(=S)NCc1ccc(Br)cc1,31.2 µM
4,Oc1ccccc1C(=S)NCc1ccc(Cl)c(Cl)c1,31.2 µM

# Tested on: Pichia kudriavzevii
# Test: Antifungal activity against Candida krusei E28 after 24 hrs by broth microdilution assay
# Assay type: functional
# Details: not given
row,Compound,logMIC
1,COc1ccc(O)c(C(=S)NCc2ccccc2)c1,2.4

# Same assay, conditions: Pichia kudriavzevii, E28, 24 h
row,Compound,MIC
1,Oc1ccc(Br)cc1C(=S)NCc1ccc(Cl)c(Cl)c1,7.81 µM
2,Cc1ccc(C(=S)NCc2ccc(Cl)cc2)c(O)c1,> 500 µM
3,Oc1ccc(Br)cc1C(=S)NCc1ccc(Br)cc1,3.9 µM
4,Oc1ccccc1C(=S)NCc1ccc(Cl)c(Cl)c1,15.6 µM

# Tested on: Candida albicans
# Test: Antifungal activity against Candida albicans ATCC 44859 after 48 hrs by broth microdilution assay
# Assay type: functional
# Details: not given
row,Compound,logMIC
1,COc1ccc(O)c(C(=S)NCc2ccccc2)c1,2.4

# Same assay, conditions: Candida albicans, ATCC 44859, 48 h
row,Compound,MIC
1,Oc1ccc(Br)cc1C(=S)NCc1ccc(Cl)c(Cl)c1,31.2 µM
2,Cc1ccc(C(=S)NCc2ccc(Cl)cc2)c(O)c1,> 500 µM
3,Oc1ccc(Br)cc1C(=S)NCc1ccc(Br)cc1,31.2 µM
4,Oc1ccccc1C(=S)NCc1ccc(Cl)c(Cl)c1,31.2 µM

# Tested on: Lichtheimia corymbifera
# Test: Antifungal activity against Absidia corymbifera 272 after 48 hrs by broth microdilution assay
# Assay type: functional
# Details: not given
row,Compound,logMIC
1,COc1ccc(O)c(C(=S)NCc2ccccc2)c1,2.1

# Same assay, conditions: Lichtheimia corymbifera, 272, 48 h
row,Compound,MIC
1,Oc1ccc(Br)cc1C(=S)NCc1ccc(Cl)c(Cl)c1,3.9 µM
2,Cc1ccc(C(=S)NCc2ccc(Cl)cc2)c(O)c1,> 500 µM
3,Oc1ccc(Br)cc1C(=S)NCc1ccc(Br)cc1,3.9 µM
4,Oc1ccccc1C(=S)NCc1ccc(Cl)c(Cl)c1,15.6 µM

# Tested on: Trichosporon asahii
# Test: Antifungal activity against Trichosporon asahii 1188 after 24 hrs by broth microdilution assay
# Assay type: functional
# Details: not given
row,Compound,logMIC
1,COc1ccc(O)c(C(=S)NCc2ccccc2)c1,2.1

# Same assay, conditions: Trichosporon asahii, 1188, 24 h
row,Compound,MIC
1,Oc1ccc(Br)cc1C(=S)NCc1ccc(Cl)c(Cl)c1,3.9 µM
2,Cc1ccc(C(=S)NCc2ccc(Cl)cc2)c(O)c1,> 500 µM
3,Oc1ccc(Br)cc1C(=S)NCc1ccc(Br)cc1,3.9 µM
4,Oc1ccccc1C(=S)NCc1ccc(Cl)c(Cl)c1,15.6 µM

# Tested on: Trichophyton mentagrophytes
# Test: Antifungal activity against Trichophyton mentagrophytes 445 after 72 hrs by broth microdilution assay
# Assay type: functional
# Details: not given
row,Compound,logMIC
1,COc1ccc(O)c(C(=S)NCc2ccccc2)c1,1.8

# Same assay, conditions: Trichophyton mentagrophytes, 445, 72 h
row,Compound,MIC
1,Oc1ccc(Br)cc1C(=S)NCc1ccc(Cl)c(Cl)c1,0.98 µM
2,Cc1ccc(C(=S)NCc2ccc(Cl)cc2)c(O)c1,> 500 µM
3,Oc1ccc(Br)cc1C(=S)NCc1ccc(Br)cc1,15.6 µM
4,Oc1ccccc1C(=S)NCc1ccc(Cl)c(Cl)c1,7.81 µM

# Tested on: Candida albicans
# Test: Antifungal activity against Candida albicans ATCC 44859 after 24 hrs by broth microdilution assay
# Assay type: functional
# Details: not given
row,Compound,logMIC
1,COc1ccc(O)c(C(=S)NCc2ccccc2)c1,2.1

# Same assay, conditions: Candida albicans, ATCC 44859, 24 h
row,Compound,MIC
1,Oc1ccc(Br)cc1C(=S)NCc1ccc(Cl)c(Cl)c1,15.6 µM
2,Cc1ccc(C(=S)NCc2ccc(Cl)cc2)c(O)c1,> 500 µM
3,Oc1ccc(Br)cc1C(=S)NCc1ccc(Br)cc1,15.6 µM
4,Oc1ccccc1C(=S)NCc1ccc(Cl)c(Cl)c1,15.6 µM

# Tested on: Aspergillus fumigatus
# Test: Antifungal activity against Aspergillus fumigatus 231 after 48 hrs by broth microdilution assay
# Assay type: functional
# Details: not given
row,Compound,logMIC
1,COc1ccc(O)c(C(=S)NCc2ccccc2)c1,2.4

# Same assay, conditions: Aspergillus fumigatus, 231, 48 h
row,Compound,MIC
1,Oc1ccc(Br)cc1C(=S)NCc1ccc(Cl)c(Cl)c1,7.81 µM
2,Cc1ccc(C(=S)NCc2ccc(Cl)cc2)c(O)c1,> 500 µM
3,Oc1ccc(Br)cc1C(=S)NCc1ccc(Br)cc1,15.6 µM
4,Oc1ccccc1C(=S)NCc1ccc(Cl)c(Cl)c1,31.2 µM

# Tested on: Nakaseomyces glabratus
# Test: Antifungal activity against Candida glabrata 20/I after 48 hrs by broth microdilution assay
# Assay type: functional
# Details: not given
row,Compound,logMIC
1,COc1ccc(O)c(C(=S)NCc2ccccc2)c1,2.4

# Same assay, conditions: Nakaseomyces glabratus, 20/I, 48 h
row,Compound,MIC
1,Oc1ccc(Br)cc1C(=S)NCc1ccc(Cl)c(Cl)c1,62.5 µM
2,Cc1ccc(C(=S)NCc2ccc(Cl)cc2)c(O)c1,> 500 µM
3,Oc1ccc(Br)cc1C(=S)NCc1ccc(Br)cc1,125 µM
4,Oc1ccccc1C(=S)NCc1ccc(Cl)c(Cl)c1,31.2 µM

# Tested on: Trichophyton mentagrophytes
# Test: Antifungal activity against Trichophyton mentagrophytes 445 after 120 hrs by broth microdilution assay
# Assay type: functional
# Details: not given
row,Compound,logMIC
1,COc1ccc(O)c(C(=S)NCc2ccccc2)c1,1.8

# Same assay, conditions: Trichophyton mentagrophytes, 445, 120 h
row,Compound,MIC
1,Oc1ccc(Br)cc1C(=S)NCc1ccc(Cl)c(Cl)c1,0.98 µM
2,Cc1ccc(C(=S)NCc2ccc(Cl)cc2)c(O)c1,> 500 µM
3,Oc1ccc(Br)cc1C(=S)NCc1ccc(Br)cc1,31.2 µM
4,Oc1ccccc1C(=S)NCc1ccc(Cl)c(Cl)c1,15.6 µM

# Tested on: Candida tropicalis
# Test: Antifungal activity against Candida tropicalis 159 after 48 hrs by broth microdilution assay
# Assay type: functional
# Details: not given
row,Compound,logMIC
1,COc1ccc(O)c(C(=S)NCc2ccccc2)c1,2.4

# Same assay, conditions: Candida tropicalis, 159, 48 h
row,Compound,MIC
1,Oc1ccc(Br)cc1C(=S)NCc1ccc(Cl)c(Cl)c1,31.2 µM
2,Cc1ccc(C(=S)NCc2ccc(Cl)cc2)c(O)c1,> 500 µM
3,Oc1ccc(Br)cc1C(=S)NCc1ccc(Br)cc1,31.2 µM
4,Oc1ccccc1C(=S)NCc1ccc(Cl)c(Cl)c1,31.2 µM

# — ChEMBL document CHEMBL1208720, “N-Benzylsalicylthioamides as novel compounds with promising antimycotic activity” (2010)
